For experiment [1], the target named is T1, SARS-CoV-2 PLpro (nsp3 1564–1878) (Severe acute respiratory syndrome coronavirus 2, UniProt P0DTD1). Kind of experiment: biochemical. Also on record: FRET-quenched peptide (Pro3) cleavage by PLpro, 10 min pre-incubation, slope over 20 min, normalised to no-compound control. Particulars: low concentration screen, read-out: % of control remaining.
Experiment [2] has as its target T1, SARS-CoV-2 PLpro (nsp3 1564–1878). Kind of experiment: biochemical. Also on record: FRET-quenched peptide (Pro3) cleavage by PLpro, 10 min pre-incubation, slope over 20 min, normalised to no-compound control. To be noted: high concentration screen, read-out: % of control remaining.

Counter-ions that a name gives are not always drawn. Like-named read-outs stand apart in the source and are kept apart here.

For `COc1c2occc2cc2ccc(=O)oc12` [Xanthotoxin], the remaining activity at 1.25 µM in experiment [1] (Well no.=3459) is 104%. Moreover, the remaining activity at 3.75 µM in experiment [2] (Well no.=3459) was 106%.

With `Cc1cccc(C)c1NC1=NCCCS1` [Xylazine (hydrochloride)], the remaining activity at 1.25 µM in experiment [1] (Well no.=6847) is 101%. Also, the remaining activity at 3.75 µM in experiment [2] (Well no.=6847) worked out at 95.9%.

Take `Cc1cccc(C)c1NC1=NCCCS1` [Xylazine]: in experiment [1] (Well no.=1652), the remaining activity at 1.25 µM came out at 103%. Besides, the remaining activity at 3.75 µM in experiment [2] (Well no.=1652) was 106%.

For the compound `Cc1cc(C(C)(C)C)cc(C)c1CC1=NCCN1` [Xylometazoline (hydrochloride)], the remaining activity at 1.25 µM in experiment [1] (Well no.=6281) is 106%. Also, the remaining activity at 3.75 µM in experiment [2] (Well no.=6281) was found to be 106%.

Regarding `Cc1cc(C(C)(C)C)cc(C)c1CC1=NCCN1` [Xylometazoline hydrochloride], the remaining activity at 1.25 µM in experiment [1] (Well no.=1484) stood at 96.8%. In addition, the remaining activity at 3.75 µM in experiment [2] (Well no.=1484) worked out at 96.2%.

`O=C[C@H](O)[C@@H](O)[C@H](O)CO` [Xylose]: the remaining activity at 1.25 µM in experiment [1] (Well no.=6351) stood at 103%; in experiment [1] (Well no.=8144), 99.9%. Moreover, the remaining activity at 3.75 µM in experiment [2] (Well no.=6351) was found to be 105%; in experiment [2] (Well no.=8144) it was 96.9%.

Consider `C[C@@H](N)[C@H]1CC[C@H](C(=O)Nc2ccncc2)CC1` [Y-27632 dihydrochloride - trans-4-[(1R)-1-Aminoethyl]-N-4-pyridinylcyclohexanecarboxamide dihydrochloride], for which, in experiment [1] (Well no.=2350), the remaining activity at 1.25 µM was 105%. Moreover, the remaining activity at 3.75 µM in experiment [2] (Well no.=2350) was 104%.

In the case of `CCOC(=O)c1[nH]c2cc(Cl)ccc2c1C(C(=O)NC(C)(C)C)N(C=O)Cc1ccc(Cl)cc1` (stereo not shown) [YH239-EE], the remaining activity at 1.25 µM in experiment [1] (Well no.=6392) worked out at 98.6%. Further, the remaining activity at 3.75 µM in experiment [2] (Well no.=6392) was 97.4%.

Consider `COc1ccc(C(=O)CC2(O)C(=O)Nc3c(Cl)ccc(Cl)c32)cc1` (stereo not shown) [YK-4-279], for which the remaining activity at 1.25 µM in experiment [1] (Well no.=6444) was determined as 97.8%. Moreover, the remaining activity at 3.75 µM in experiment [2] (Well no.=6444) came to 98.7%.

Take `O=c1ccccn1CC1(O)CCN(Cc2ccccc2)CC1` [YL0919]: the remaining activity at 1.25 µM in experiment [1] (Well no.=8009) turned out to be 101%. The remaining activity at 3.75 µM in experiment [2] (Well no.=8009) was found to be 98.2%.

Regarding `COCC[n+]1c2c(n(Cc3cnccn3)c1C)C(=O)c1ccccc1C2=O` [YM-155], in experiment [1] (Well no.=6678), the remaining activity at 1.25 µM turned out to be 94.8%. The remaining activity at 3.75 µM in experiment [2] (Well no.=6678) is 91.4%.

As to `C[C@H](NC(=O)Cc1cc(F)cc(F)c1)C(=O)N[C@@H]1C(=O)N(C)c2ccccc2-c2ccccc21` [YO-01027], in experiment [1] (Well no.=4687), the remaining activity at 1.25 µM stood at 101%. In experiment [2] (Well no.=4687), the remaining activity at 3.75 µM was determined as 105%.

`COc1ccc(CCN(C)CCc2ccc(OC)c(OC)c2)cc1OC` [YS-035 hydrochloride]: in experiment [1] (Well no.=1246), the remaining activity at 1.25 µM is 103%. Further, the remaining activity at 3.75 µM in experiment [2] (Well no.=1246) came out at 102%.

In the case of `Cc1ccc(NC(=O)C(=O)NC2CC(C)(C)NC(C)(C)C2)cc1` [YYA-021], in experiment [1] (Well no.=8084), the remaining activity at 1.25 µM was found to be 102%. For the same compound, in experiment [2] (Well no.=8084), the remaining activity at 3.75 µM was 106%.

On to `COc1ccc(/C=C/c2cc(OC)cc(=O)o2)cc1` [Yangonin], for which the remaining activity at 1.25 µM in experiment [1] (Well no.=3765) stood at 90.2%. In addition, in experiment [2] (Well no.=3765), the remaining activity at 3.75 µM worked out at 90.6%.

With `COC(=O)[C@@H]1[C@H]2C[C@H]3c4[nH]c5ccccc5c4CCN3C[C@@H]2CC[C@@H]1O` [Yohimbine (Hydrochloride)], the remaining activity at 1.25 µM in experiment [1] (Well no.=8337) turned out to be 103%. For the same compound, the remaining activity at 3.75 µM in experiment [2] (Well no.=8337) is 97.4%.

Consider `COC(=O)[C@@H]1[C@H]2C[C@H]3c4[nH]c5ccccc5c4CCN3C[C@@H]2CC[C@@H]1O` [Yohimbine hydrochloride], for which the remaining activity at 1.25 µM in experiment [1] (Well no.=1198) worked out at 105%. In addition, the remaining activity at 3.75 µM in experiment [2] (Well no.=1198) is 104%.

With `COC(=O)CC[C@H](NC(=O)[C@H](CC(=O)OC)NC(=O)OCc1ccccc1)C(=O)N[C@H](C(=O)N[C@@H](CC(=O)OC)C(=O)CF)C(C)C` [Z-DEVD-FMK], the remaining activity at 1.25 µM in experiment [1] (Well no.=7172) is 102%; in experiment [1] (Well no.=7636), 95.2%. In addition, the remaining activity at 3.75 µM in experiment [2] (Well no.=7172) is 99.7%; in experiment [2] (Well no.=7636), 91.3%.

The record behind these values is PMC8286840, “Identifying SARS-CoV-2 antiviral compounds by screening for small molecule inhibitors of Nsp3 papain-like protease” (Biochemical Journal, 2021).
